Test results reported in patent US20250304594A1, “METHYL (R)-2-(FLUOROMETHYL)-5-OXO-4-PHENYL-4,5,6,7-TETRAHYDRO-1H-CYCLOPENTA[B]PYRIDINE-3-CARBOXYLATE AND METHYL (R)-2-(FLUOROMETHYL)-5-OXO-4-PHENYL-1,4,5,7-TETRAHYDROFURO[3,4-B]PYRIDINE-3-CARBOXYLATE AS Cav1,2 ACTIVATORS” (Novartis AG, priority 2020, published 2025).

Experiments:
[1] = Hygroscopicity / water sorption of crystalline hydrates versus relative humidity; format: physicochemical
human CaV1.2 [2] = target: T1, human CaV1.2 (Homo sapiens, UniProt Q13936); experiment: QPatch channel biophysics assay (channel gating, V1/2 of activation, inactivation) in CaV1.2-HEK293(AUX) cells; format: cell-based; settings: Table 10 comparative examples
T1 construct: expressed in transfected cells; host or cells: Flp-In 293 T-Rex (HEK293), monoclonal CaV1.2-HEK293(AUX) clone 2-19B; doxycycline-induced auxiliary subunits
From the text: (§1) The monoclonal CaV1.2-HEK293(AUX) cell line constitutively expresses human CaV1.2 alpha1C (α1C) subunit (CACNA1C) and has doxycycline-inducible expression of the alpha2delta (α2Δ2) auxiliary subunit (CACNA2D2) and beta2 (02) auxiliary subunit (CACNB2). To generate the cell line, expression vectors pcDNA5.0/FRT-TO-CACNA2D2-FCS-P2A-CACNB2 and pCMV6-entry-CACNA1C were established via gene synthesis and cloning. Here, pcDNA5.0/FRT-TO plasmid is from Invitrogen, pCMV6-entry is from Origene, FCS stands for Furin Cleavage Site, P2A is a peptide self-cleavage sequence derived from porcine teschovirus-1, and FRT is the Flippase recognition target site. Next, parental line Flp-In™ 293 T-Rex (Invitrogen) was transfected with pcDNA5.0/FRT-TO-CACNA2D2-FCS-P2A-CACNB2 and Flippase vector pOG44 (Invitrogen) to establish targeted integration of the CACNA2D2-FCS-P2A-CACNB2 expression cassette into the pre-engineered FRT site in Flp-In™ 293 T-Rex. This intermediate cell line was then transfected with pCMV6-entry-CACNA1C to establish stable CACNA1C expression. Clonal isolation was achieved under Neomycin selection. A cell clone (2-19B) with good voltage-dependent Barium current (see electrophysiology methods below) was selected for characterization of CaV1.2 activators.
(§2) 24 hours prior an electrophysiology experiment, doxycycline (1 μg/ml) was added to the growth medium (Table 6), and 25 μM of verapamil was co-applied to prevent calcium influx triggered cell death. Cell confluency should reach 70%-80% right before the experiment. To harvest cells (from a T175 cm^2 flask as an example), growth media were removed completely, and the cells were rinsed with 10 mL of D-PBS. D-PBS was aspirated, and 10 mL of Detachin (Genlantis) was added and the plate was placed in a 37° C. incubator for 10 minutes. Detached cells were placed into a 15 mL conical tube and spun at 1000 rpm for 2 minutes. Supernatant was removed, and cells were re-suspended in QPatch complete media (Table 7) to desired cell density of 1.5-3 million cells per QPatch run. Each experimental run uses 1.5 mL of cells.
The cells suspension was taken to the Sophion QPatch platform that uses whole-cell voltage clamp to measure barium currents conducted through CaV1.2 on single-hole QPlates. Extracellular and intracellular patch clamp solutions are described in Tables 7 and 8, respectively. A dose-response assay protocol was used to determine the maximal fold change of peak inward current (Emax) and potency (EC50) of each compound. The protocol had eight liquid periods. The first liquid period was to stabilize current amplitude, which was monitored using repetitive 200-ms voltage pulses stepping from −80 mV to 0 mV. The second liquid period was to determine baseline current amplitude in the presence of vehicle control, using a single 20-ms voltage pulse stepping from −80 mV to 0 mV. The third through eighth liquid periods were used to ascertain a 6-dose response to compound treatments, also using single 20-ms voltage pulses stepping from −80 mV to 0 mV. The EC50 was generated using the following equation Iconcentration=Ibase+(Ifull−Ibase)*c^n/(XC50^n+c^n), where c is the concentration and n is the Hill coefficient constant. Ifull is the maximal current achievable, and Ibase is 0. A channel biophysics assay protocol was used to determine channel gating properties including current-voltage relationship (IV curves), half-way channel activation voltage (V1/2), rate of channel inactivation (tau), and amplitude of tail current. Among these, V1/2 was derived from fitting equation G(V)=Gvmin+(Gvmax−Gvmin)/(1+exp(−(V−V½)/Vslope)), where G stands for conductance, Gvmin equals 0, Gvmax is the maximal conductance, and Vslope is a slope factor. G(V) was pre-calculated from equation G(V)=I(V)/(V−0.06), for each experimentally applied depolarization potential (V) and the corresponding current amplitude (I(V)), and 0.06 in the equation was the experimentally determined reversal potential in volts. […]

human CaV1.2 [3] = target: T1, human CaV1.2; experiment: Sophion QPatch dose-response assay, whole-cell voltage clamp of barium currents in CaV1.2-HEK293(AUX) cells; format: cell-based; settings: Table 10 comparative examples; maximal fold change of peak inward current
From the text: as §1, with “selection.” for “selection. A cell clone (2-19B) with good voltage-dependent Barium current (see electrophysiology methods below) was selected for characterization of CaV1.2 activators.”
Electrophysiological Characterization of CaV1.2 Activators Using CaV1.2-HEK293(AUX) Cell Line and QPatch
as §2
The cells suspension was taken to the Sophion QPatch platform that uses whole-cell voltage clamp to measure barium currents conducted through CaV1.2 on single-hole QPlates. Extracellular and intracellular patch clamp solutions are described in Tables 7 and 8, respectively. A dose-response assay protocol was used to determine the maximal fold change of peak inward current (Emax) and potency (EC50) of each compound. The protocol had eight liquid periods. The first liquid period was to stabilize current amplitude, which was monitored using repetitive 200-ms voltage pulses stepping from −80 mV to 0 mV. The second liquid period was to determine baseline current amplitude in the presence of vehicle control, using a single 20-ms voltage pulse stepping from −80 mV to 0 mV. The third through eighth liquid periods were used to ascertain a 6-dose response to compound treatments, also using single 20-ms voltage pulses stepping from −80 mV to 0 mV. The EC50 was generated using the following equation Iconcentration=Ibase+(Ifull−Ibase)*c^n/(XC50^n+c^n), where c is the concentration and n is the Hill coefficient constant. Ifull is the maximal current achievable, and Ibase is 0. A channel biophysics assay protocol was used to determine channel gating properties including current-voltage relationship (IV curves), half-way channel activation voltage (V1/2), rate of channel inactivation (tau), and amplitude of tail current. Among these, V1/2 was derived from fitting equation G(V)=Gvmin+(Gvmax−Gvmin)/(1+exp(−(V−V½)/Vslope)), where G stands for conductance, Gvmin equals 0, Gvmax is the maximal conductance, and Vslope is a slope factor. G(V) was pre-calculated from equation G(V)=I(V)/(V−0.06), for each experimentally applied depolarization potential (V) and the corresponding current amplitude (I(V)), and 0.06 in the equation was the experimentally determined reversal potential in volts. The protocol had four liquid periods.

[4] = Compound exposure in wild-type mice (brain and blood levels); format: in vivo, C57BL/6J male mice; settings: male, C57BL/6J, mouse, brain (cerebellum) / blood, intraperitoneal, Table 10 comparative examples; read-out: Brain:blood ratio
Experimental: Compound administration and brain tissue collection. Wild-type C57BL/6J male mice were obtained from Jackson laboratories (Bar Harbor, ME). The acute, single-dose effects of CaV1.2 activators of the present disclosure were evaluated in male eight-week old mice (n=6 mice per compound). Each compound was dissolved in 10% PEG300, 10% Solutol, 10% Cremophore EL, and 70% Phosphate Buffered Saline and administered intraperitoneal (i.p.) at a concentration of 1 mg/kg up to 30 mg/kg depending on the compound. Animals were euthanized one hour after compound administration via exsanguination under deep anesthesia. Blood was collected in EDTA tubes for downstream analysis of drug levels. Brains were rapidly removed from the skull, and the cerebral cortex and cerebellum were regionally dissected. Cerebellar samples were snap frozen in liquid nitrogen to assess compound exposure. Cortical samples for cFos assessment were placed in 500 μl of RNAlater solution (ThermoFisher) to preserve the integrity of RNA in the sample. Samples remained in RNAlater for at least 24 hours at 4° C. before moving to −80° C. for storage before processing.
Quantification of compound exposure. Cerebellar tissue samples were homogenized in 4 ml of 20% acetonitrile and 80% Phosphate buffered saline for every 1 g of tissue (5× dilution). Tissue was homogenized using either of the following three methods: hand held probe system, TissueLyser system with 5 mm steel bead at a frequency of 30 s^−1 for 4 min, or OMNI Bead Ruptor Elite homogenizer for 30 seconds to 1 minute depending on tissue type. Tissue samples were added to a 96-well plate (12.5 uL sample) and processed for quantification by mass spectrometry.

T1 sequence (Q13936 1-2138 isoform Q13936-23): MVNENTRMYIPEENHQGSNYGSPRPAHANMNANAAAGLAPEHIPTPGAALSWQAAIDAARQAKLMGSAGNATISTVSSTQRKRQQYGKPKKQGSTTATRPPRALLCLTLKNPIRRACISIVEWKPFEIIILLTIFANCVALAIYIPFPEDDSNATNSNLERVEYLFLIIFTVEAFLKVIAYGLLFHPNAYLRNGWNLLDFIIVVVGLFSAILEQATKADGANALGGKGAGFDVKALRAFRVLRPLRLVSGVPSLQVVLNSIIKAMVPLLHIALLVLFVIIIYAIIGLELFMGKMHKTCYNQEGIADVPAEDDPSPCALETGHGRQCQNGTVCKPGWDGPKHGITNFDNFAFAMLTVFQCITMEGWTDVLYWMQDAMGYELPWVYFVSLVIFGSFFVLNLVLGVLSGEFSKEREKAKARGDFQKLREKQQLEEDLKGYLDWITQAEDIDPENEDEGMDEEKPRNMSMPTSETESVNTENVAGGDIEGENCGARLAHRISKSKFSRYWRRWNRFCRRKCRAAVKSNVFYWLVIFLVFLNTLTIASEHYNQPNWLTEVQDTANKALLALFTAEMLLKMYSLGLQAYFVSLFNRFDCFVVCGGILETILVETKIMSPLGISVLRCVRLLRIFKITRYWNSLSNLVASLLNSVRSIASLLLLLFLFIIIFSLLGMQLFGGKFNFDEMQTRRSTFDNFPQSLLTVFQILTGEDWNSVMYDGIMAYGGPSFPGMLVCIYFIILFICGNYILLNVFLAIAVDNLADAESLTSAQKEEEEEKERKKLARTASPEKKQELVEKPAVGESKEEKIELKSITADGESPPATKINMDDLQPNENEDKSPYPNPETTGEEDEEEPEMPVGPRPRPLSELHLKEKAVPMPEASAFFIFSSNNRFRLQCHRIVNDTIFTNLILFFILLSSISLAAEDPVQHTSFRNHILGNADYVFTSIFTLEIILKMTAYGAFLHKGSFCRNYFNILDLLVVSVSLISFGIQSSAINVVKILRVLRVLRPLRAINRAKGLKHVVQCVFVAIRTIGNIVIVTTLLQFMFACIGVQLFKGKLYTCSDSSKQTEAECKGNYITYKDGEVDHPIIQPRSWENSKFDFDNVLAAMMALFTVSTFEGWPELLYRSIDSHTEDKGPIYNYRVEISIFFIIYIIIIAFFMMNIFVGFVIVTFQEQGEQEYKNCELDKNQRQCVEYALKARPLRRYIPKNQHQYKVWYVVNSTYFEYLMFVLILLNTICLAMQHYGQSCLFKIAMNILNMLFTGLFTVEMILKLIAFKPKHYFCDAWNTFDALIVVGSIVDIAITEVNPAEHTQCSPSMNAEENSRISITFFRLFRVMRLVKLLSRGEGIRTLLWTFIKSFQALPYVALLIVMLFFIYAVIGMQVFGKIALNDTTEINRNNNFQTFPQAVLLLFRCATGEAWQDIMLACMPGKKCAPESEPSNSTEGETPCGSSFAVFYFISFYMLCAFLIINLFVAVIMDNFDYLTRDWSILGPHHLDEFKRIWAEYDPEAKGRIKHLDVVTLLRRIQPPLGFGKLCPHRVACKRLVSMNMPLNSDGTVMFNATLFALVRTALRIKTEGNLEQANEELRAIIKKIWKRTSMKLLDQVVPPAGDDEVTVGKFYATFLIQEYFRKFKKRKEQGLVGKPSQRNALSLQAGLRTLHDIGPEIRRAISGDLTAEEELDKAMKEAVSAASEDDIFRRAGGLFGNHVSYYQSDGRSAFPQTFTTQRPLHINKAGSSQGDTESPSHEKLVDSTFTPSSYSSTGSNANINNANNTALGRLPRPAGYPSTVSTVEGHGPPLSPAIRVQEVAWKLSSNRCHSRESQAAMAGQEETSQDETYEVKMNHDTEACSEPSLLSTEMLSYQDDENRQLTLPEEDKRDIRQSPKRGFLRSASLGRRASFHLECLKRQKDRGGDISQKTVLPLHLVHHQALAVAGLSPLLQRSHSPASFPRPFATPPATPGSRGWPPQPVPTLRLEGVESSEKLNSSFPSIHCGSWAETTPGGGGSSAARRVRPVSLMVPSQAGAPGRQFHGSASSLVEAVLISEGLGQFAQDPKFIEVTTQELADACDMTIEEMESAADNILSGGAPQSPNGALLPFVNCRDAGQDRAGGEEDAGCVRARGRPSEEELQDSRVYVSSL
T1 sequence (Q9NY47 19-1001 partner limits assumed): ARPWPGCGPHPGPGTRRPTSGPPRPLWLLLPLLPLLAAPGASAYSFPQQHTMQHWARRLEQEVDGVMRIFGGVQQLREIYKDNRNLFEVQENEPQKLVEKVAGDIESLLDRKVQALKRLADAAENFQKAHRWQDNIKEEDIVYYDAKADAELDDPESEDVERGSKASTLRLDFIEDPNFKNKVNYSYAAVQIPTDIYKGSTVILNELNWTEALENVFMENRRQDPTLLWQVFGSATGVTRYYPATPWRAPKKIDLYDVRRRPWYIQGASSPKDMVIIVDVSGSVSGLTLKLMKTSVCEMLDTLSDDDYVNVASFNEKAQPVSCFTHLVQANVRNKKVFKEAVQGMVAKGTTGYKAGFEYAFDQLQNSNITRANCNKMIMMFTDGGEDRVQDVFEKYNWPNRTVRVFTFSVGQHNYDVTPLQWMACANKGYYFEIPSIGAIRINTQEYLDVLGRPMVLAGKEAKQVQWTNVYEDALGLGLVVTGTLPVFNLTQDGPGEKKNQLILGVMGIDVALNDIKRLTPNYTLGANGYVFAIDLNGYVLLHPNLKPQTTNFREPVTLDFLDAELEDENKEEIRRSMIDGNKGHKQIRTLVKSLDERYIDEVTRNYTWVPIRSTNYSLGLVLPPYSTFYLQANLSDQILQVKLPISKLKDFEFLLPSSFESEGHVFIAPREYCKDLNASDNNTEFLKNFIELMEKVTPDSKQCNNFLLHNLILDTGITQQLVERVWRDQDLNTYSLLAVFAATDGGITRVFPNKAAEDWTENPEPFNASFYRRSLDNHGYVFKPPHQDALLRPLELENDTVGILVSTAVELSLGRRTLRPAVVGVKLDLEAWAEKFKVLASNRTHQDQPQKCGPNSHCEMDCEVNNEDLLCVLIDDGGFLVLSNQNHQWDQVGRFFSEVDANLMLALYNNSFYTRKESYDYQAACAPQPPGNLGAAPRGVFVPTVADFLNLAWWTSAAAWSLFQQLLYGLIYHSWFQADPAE
T1 sequence (Q9NY47 1002-1150 partner limits assumed): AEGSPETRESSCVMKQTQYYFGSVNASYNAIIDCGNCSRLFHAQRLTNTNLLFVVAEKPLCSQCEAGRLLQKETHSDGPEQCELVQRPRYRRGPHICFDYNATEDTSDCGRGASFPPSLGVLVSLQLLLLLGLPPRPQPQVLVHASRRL
T1 sequence (Q08289 whole entry partner): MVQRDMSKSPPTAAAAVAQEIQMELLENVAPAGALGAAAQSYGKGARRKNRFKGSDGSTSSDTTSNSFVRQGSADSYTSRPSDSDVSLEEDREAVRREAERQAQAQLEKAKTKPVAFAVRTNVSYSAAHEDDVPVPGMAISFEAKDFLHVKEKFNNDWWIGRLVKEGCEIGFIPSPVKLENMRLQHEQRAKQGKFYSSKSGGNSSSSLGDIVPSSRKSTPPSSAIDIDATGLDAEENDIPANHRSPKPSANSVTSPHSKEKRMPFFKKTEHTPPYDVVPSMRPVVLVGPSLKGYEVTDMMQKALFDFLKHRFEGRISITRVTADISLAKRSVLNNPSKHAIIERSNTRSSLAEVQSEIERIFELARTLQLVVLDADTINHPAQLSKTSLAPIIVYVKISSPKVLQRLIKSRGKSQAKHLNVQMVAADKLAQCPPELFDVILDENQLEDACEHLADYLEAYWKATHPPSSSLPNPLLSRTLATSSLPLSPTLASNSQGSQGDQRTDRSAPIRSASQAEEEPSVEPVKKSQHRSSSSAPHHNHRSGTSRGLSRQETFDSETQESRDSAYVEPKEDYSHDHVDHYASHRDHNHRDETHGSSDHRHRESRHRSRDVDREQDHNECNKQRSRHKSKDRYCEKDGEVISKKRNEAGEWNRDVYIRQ

COC(=O)C1=C(CF)NC2=C(C(=O)OC2)[C@H]1c1cccc(F)c1[C@@H](C)F [Hydrate A, methyl (R)-4-(3-fluoro-2-((R)-1-fluoroethyl)phenyl)-2-(fluoromethyl)-5-oxo-1,4,5,7-tetrahydrofuro[3,4-b]pyridine-3-carboxylate]
hygroscopicity [1]: slightly hygroscopic | water uptake ([1]; between 10% to 95% RH at 25° C.): about 0.2%

COC(=O)C1=C(CF)NC2=C(C(=O)OC2)[C@H]1c1cccc(F)c1[C@@H](C)F [Hydrate B, methyl (R)-4-(3-fluoro-2-((R)-1-fluoroethyl)phenyl)-2-(fluoromethyl)-5-oxo-1,4,5,7-tetrahydrofuro[3,4-b]pyridine-3-carboxylate]
water uptake upon subsequent increase of the relative humidity ([1]; 25° C.): about 3% | loss of water on dehydration ([1]; starts below 20% RH, until 0% RH): about 4.4%

CCOC(=O)C1=C(C)NC2=C(C(=O)OC2)[C@H]1c1ccccc1OC(F)F (single isomer, unassigned) [CGP028392, reference compound]
Biophysics voltage shift (mV) (human CaV1.2 [2]): −6.7 mV | Qpatch Emax (human CaV1.2 [3]): 2.2 | Kp at 1 h [4]: 0.23
